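Method: 48-hour compound exposure of cells in 96-well plates, five concentrations, linear interpolation of endpoints. GI50 is the concentration that inhibits growth by half.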 Active and inactive are the calls of the source. Rule as the data show it: active = GI50 up to about 1.1 µM and inactive = higher.
What was measured:
Assay in all cases: growth of human tumour cells (NCI), 48 h
786-0 = test system: 786-0
A549 = test system: A549
ACHN = test system: ACHN
BT-549 = test system: BT-549
CAKI-1 = test system: CAKI-1
CCRF-CEM = test system: CCRF-CEM
COLO 205 = test system: COLO 205
DU-145 = test system: DU-145
EKVX = test system: EKVX
HCC 2998 = test system: HCC 2998
HCT-116 = test system: HCT-116
HCT-15 = test system: HCT-15
HL-60 = test system: HL-60
HOP-62 = test system: HOP-62
HOP-92 = test system: HOP-92
HT-29 = test system: HT-29
Hs-578T = test system: Hs-578T
IGROV-1 = test system: IGROV-1
K562 = test system: K562
KM12 = test system: KM12
LOX IMVI = test system: LOX IMVI
M14 = test system: M14
MCF7 = test system: MCF7
MDA-MB-231 = test system: MDA-MB-231
MDA-MB-435 = test system: MDA-MB-435
MDA-N = test system: MDA-N
MOLT-4 = test system: MOLT-4
Malme-3M = test system: Malme-3M
NCI-H226 = test system: NCI-H226
NCI-H23 = test system: NCI-H23
NCI-H460 = test system: NCI-H460
NCI-H522 = test system: NCI-H522
NCI/ADR-RES = test system: NCI/ADR-RES
OVCAR-3 = test system: OVCAR-3
OVCAR-4 = test system: OVCAR-4
OVCAR-5 = test system: OVCAR-5
OVCAR-8 = test system: OVCAR-8
PC-3 = test system: PC-3
RPMI-8226 = test system: RPMI-8226
RXF 393 = test system: RXF 393
SF-268 = test system: SF-268
SF-295 = test system: SF-295
SF-539 = test system: SF-539
SK-MEL-28 = test system: SK-MEL-28
SK-MEL-2 = test system: SK-MEL-2
SK-MEL-5 = test system: SK-MEL-5
SK-OV-3 = test system: SK-OV-3
SN12C = test system: SN12C
SNB-19 = test system: SNB-19
SNB-75 = test system: SNB-75
SR = test system: SR
SW-620 = test system: SW-620
T47D = test system: T47D
TK-10 = test system: TK-10
U-251 = test system: U-251
UACC-257 = test system: UACC-257
UACC-62 = test system: UACC-62
UO-31 = test system: UO-31

Measured: GI50

Nc1ccc(S(=O)(=O)Nc2nc3ccccc3nc2N2CCCCCC2)cc1
inactive: 786-0 30.2 µM | A549 27.7 µM | ACHN 35.9 µM | BT-549 7.23 µM | CAKI-1 26.4 µM | CCRF-CEM 33.5 µM | COLO 205 16.6 µM | DU-145 30.9 µM | EKVX 40.3 µM | HCC 2998 16.6 µM | HCT-116 16.6 µM | HL-60 19.1 µM | HOP-62 20 µM | HOP-92 23.4 µM | HT-29 33.3 µM | Hs-578T 37.2 µM | IGROV-1 34.4 µM | K562 17.6 µM | KM12 30.9 µM | LOX IMVI 17.3 µM | M14 37.2 µM | MCF7 38.9 µM | MDA-MB-231 26.9 µM | MDA-MB-435 18.1 µM | MDA-N 32.5 µM | MOLT-4 16 µM | Malme-3M 34.4 µM | NCI-H226 34.7 µM | NCI-H23 9.06 µM | NCI-H460 23.4 µM | NCI-H522 29 µM | NCI/ADR-RES 30.8 µM | OVCAR-3 18.3 µM | OVCAR-4 17.1 µM | OVCAR-5 38.5 µM | OVCAR-8 31.9 µM | PC-3 29.8 µM | RPMI-8226 14.6 µM | RXF 393 16 µM | SF-268 45.9 µM | SF-295 22.9 µM | SF-539 18.5 µM | SK-MEL-28 18.5 µM | SK-MEL-2 20 µM | SK-MEL-5 16.1 µM | SK-OV-3 33.6 µM | SN12C 11 µM | SNB-19 32.7 µM | SNB-75 50.8 µM | SR 12.5 µM | SW-620 20 µM | T47D 22.9 µM | TK-10 31.8 µM | U-251 20.2 µM | UACC-257 32.9 µM | UACC-62 18.1 µM | UO-31 13.2 µM
23.9 µM: HCT-15

CC1=C(C(=O)OC(C)C)C(c2cccc([N+](=O)[O-])c2)C(C(=O)OC(CO[N+](=O)[O-])CO[N+](=O)[O-])=C(C)N1 (stereo unspecified)
inactive: 786-0 3.56 µM | A549 3.37 µM | ACHN 3.44 µM | BT-549 2.67 µM | CAKI-1 3.99 µM | CCRF-CEM 1.92 µM | COLO 205 2.93 µM | DU-145 11.4 µM | EKVX 4.37 µM | HCC 2998 4.53 µM | HCT-116 2.66 µM | HL-60 2 µM | HOP-62 3.85 µM | HOP-92 1.78 µM | HT-29 3.21 µM | Hs-578T 3.51 µM | IGROV-1 4.75 µM | K562 2.76 µM | KM12 3.3 µM | LOX IMVI 3.08 µM | M14 3.56 µM | MDA-MB-231 3.59 µM | MDA-MB-435 3.15 µM | MDA-N 2.83 µM | MOLT-4 1.85 µM | Malme-3M 5.15 µM | NCI-H226 6.55 µM | NCI-H23 5.37 µM | NCI-H460 3.5 µM | NCI-H522 1.85 µM | NCI/ADR-RES 2.45 µM | OVCAR-3 3.45 µM | OVCAR-4 2.81 µM | OVCAR-5 6.71 µM | OVCAR-8 3.85 µM | PC-3 2.05 µM | RXF 393 7.52 µM | SF-268 2.26 µM | SF-539 3.01 µM | SK-MEL-28 11.4 µM | SK-MEL-2 2.39 µM | SK-MEL-5 1.96 µM | SK-OV-3 7.01 µM | SN12C 3.97 µM | SNB-19 2.99 µM | SNB-75 2.66 µM | SR 3.22 µM | SW-620 4.14 µM | T47D 3.99 µM | TK-10 8.07 µM | U-251 2.24 µM | UACC-257 3.54 µM | UACC-62 2.65 µM | UO-31 3.44 µM
active: MCF7 0.61 µM | RPMI-8226 1.05 µM | SF-295 0.501 µM
2.86 µM: HCT-15

From ChEMBL document CHEMBL1201862, “PubChem BioAssay data set” (2004)
